Measured values reported in patent publication US20090258850A1, “STABILIZED THERAPEUTIC COMPOSITIONS AND FORMULATIONS” (priority 2007, published 2009).

How the values were obtained:
[1] = system: immature repopulating cells in bone marrow of BALB/c donor mice; test: Immature repopulating cell subsets (CFU-S day 12, MRA day 13) after fractionated 3x2 Gy TBI of BALB/c donor mice; format: in vivo; details: fractionated 3×2 Gy TBI; for increase in CFU-S day 12 relative to radiation controls: 40 mg/Kg/d 5-AED IM, 0.7 μg TPO IP after each fraction
Method: (§1) Combination Treatment with androst-5-ene-3β,17β-diol formulation and TPO. For direct measurements of the radioprotective effect of 5-AED, BALB/c mice were exposed to a midlethal dose of 6 Gy TBI. Two hours after TBI, mice were injected IM with 40 mg/kg 5-AED or the carrier as placebo, with or without 0.225 μg TPO or 10 μg Peg-G-CSF IP. Radioprotective effects of 5-AED on immature repopulating cell subsets were assessed by exposing BALB/c donor mice to 3 fractions of 2 Gy TBI, separated by 24 hours, and treatment with 40 mg/Kg/d 5-AED or the carrier IM, or 0.7 μg TPO IP after each fraction or a single injection of 10 μg Peg-G-CSF IP after the first fraction. Twenty four hours after the last fraction, bone marrow of donor mice was examined for immature cell content per femur using the marrow repopulating ability (MRA day 13) assay and the CFU-S day 12 after transplantation in 8 Gy irradiated mice.

[2] = system: rhesus monkeys subjected to 6 Gy TBI; details: in vivo
[3] = system: BALB/c mice exposed to 6 Gy TBI; test: Radioprotective effect in BALB/c mice after midlethal 6 Gy TBI; format: in vivo
Method: as §1

non-irradiated monkeys = details: 15 mg/Kg/d i.m. x5 days, no TBI
Method: Primates used in this study were purpose bred rhesus monkeys (Macaca Mulatta), weighing 2.5 to 4.0 Kg each and aged 2 to 3 years. 5-Androstene-3β,17β-diol (5-AED), prepared as a 100 mg/mL aqueous suspension using 7.4 mM sodium phosphate buffer, pH 6.0, containing 0.5% polysorbate 80, 0.02% benzalkonium chloride and 4.8% mannitol and its vehicle, consisting of the identical formulation without 5-AED, was administered intramuscularly (i.m.) at a dose of 15 mg/kg/d (150 μL/Kg/d), for 5 consecutive days. […] 5-AED and vehicle were administered by deep intramuscular injections into alternating left and right m. vastus lateralis. In the second study, 10 animals (3 males and 2 females in each group) received either 15 mg/Kg/d (150 μL/Kg/d), 5-AED in a stabilized formulation or vehicle for 5 consecutive days, but were not subjected to TBI.
Clinical pathology was conducted as follows: Bone marrow was aspirated under neurolept anesthesia using Ketalar (Apharmo, Arnhem, the Netherlands) and Domitor (Pfizer, Capelle a/d lJssel, The Netherlands). Small bone marrow aspirates for analytical purposes were taken from the shafts of the femurs or humeri using pediatric spinal needles and collected in bottles containing 2 mL HEPES buffered Hanks' balanced salt solution (HBBS) with 200 IU sodium heparin/mL (Leo Pharmaceutical Products, Weesp, the Netherlands). Low-density cells were isolated using Lymphoprep (density 1.077, Fresenius, Oslo, Norway) separation. Cells were plated in 35-mm dishes (Falcon 1008, Becton Dickinson, Leiden, The Netherlands) in 1 mL enriched Dulbecco's medium containing 0.8% methylcellulose, 5% FCS, and additives. […] Colony counts were calculated per mL of bone marrow aspirated using the recovery of cells over the Ficoll density gradient. […] Complete blood cell counts were measured daily using an ABC-vet animal blood counter (Scil, ABX diagnostics, Montpellier, France). […] Measurements were done using a FACSCalibur (Becton Dickinson, Leiden, The Netherlands) and 50,000 events were collected in duplicate and analyzed using the CellQuest (Becton Dickinson) software. […]

Molecule	increase in CFU-S day 12 relative to radiation controls [1]	MRA, expressed as GM-CFU per femur at 13 days after transplantation ([1]; 40 mg/Kg/d IM, range 0-5785)	bone marrow cellularity [2]	day reticulocytes reached levels >0.05×10^9/mL in peripheral blood [2]	direct local or systemic toxic effects [2]	edema [2]	increase in body weight due to fluid retention [2]	increase of CD34+ cells in BM in comparison to HERF-418 treated monkeys [2]	neutrophil recovery [2]	reduction of the period of leukopenia [2]	shortening of the time to transfusion-independence [2]	transfusions needed to maintain platelets levels of >40×10^6/mL [2]	multilineage recovery (white blood cells, platelets, red blood cells, bone marrow cellularity, colony forming cells) ([3]; 40 mg/kg IM 2 hours after 6 Gy TBI, 14 days post-TBI vs placebo)	effect of increasing the dose on multilineage recovery ([3]; dose up to 200 mg/kg)	day of maximum neutrophilic granulocyte increase after initiation of the treatment (non-irradiated monkeys)	effect on other hematopoietic lineages, bone marrow cellularity and progenitor cell content (non-irradiated monkeys)	increase from baseline levels in neutrophilic granulocytes in the peripheral blood (non-irradiated monkeys; n=5)	effect on CFU-S day 12 ([1]; single injection 10 μg Peg-G-CSF IP after first fraction)
C[C@]12CC[C@H]3[C@@H](CC=C4C[C@@H](O)CC[C@@]43C)[C@@H]1CC[C@@H]2O [5-AED, androst-5-ene-3β,17β-diol]	5 fold	1002 colonies	8.7±5.3 ×10^6 cells/mL bone marrow aspirate	19.0±1.1 day	not observed	transient edema, which resolved without sequela	up to 13.6%	90 fold	accelerated neutrophil recovery	4 days	4 days	1.3±0.5	accelerated multilineage recovery	did not augment this effect	2 days	did not affect	3.6 fold	–
Peg-G-CSF: Peg-G-CSF injected IP in mice (protein, UniProt P09919 31-207, looked up, PEGylated, Peg-G-CSF injected IP in mice) Granulocyte …: TPLGPASSLPQSFLLKCLEQVRKIQGDGAALQEKLVSECATYKLCHPEELVLLGHSLGIPWAPLSSCPSQALQLAGCLSQLHSGLFLYQGLLQALEGISPELGPTLDTLQLDVADFATTIWQQMEELGMAPALQPTQGAMPAFASAFQRRAGGVLVASHLQSFLEVSYRVLRHLAQP	–	–	–	–	–	–	–	–	–	–	–	–	–	–	–	–	–	did not affect
TPO: TPO injected IP in mice; promotes CFU-S reconstitution (protein, UniProt P40226 22-356, looked up) Thrombopoietin: SPVAPACDPRLLNKLLRDSHLLHSRLSQCPDVDPLSIPVLLPAVDFSLGEWKTQTEQSKAQDILGAVSLLLEGVMAARGQLEPSCLSSLLGQLSGQVRLLLGALQGLLGTQLPLQGRTTAHKDPNALFLSLQQLLRGKVRFLLLVEGPTLCVRRTLPTTAVPSSTSQLLTLNKFPNRTSGLLETNFSVTARTAGPGLLSRLQGFRVKITPGQLNQTSRSPVQISGYLNRTHGPVNGTHGLFAGTSLQTLEASDISPGAFNKGSLAFNLQGGLPPSPSLAPDGHTPFPPSPALPTTHGSPPQLHPLFPDPSTTMPNSTAPHPVTMYPHPRNLSQET	7 fold	–	–	–	–	–	–	–	–	–	–	–	–	–	–	–	–	–
